According to patent publication US12357711B2, “PSMA binding dual mode radiotracer and therapeutic” (Technische Universität München, priority 2019, dated 2025):
Where “and” joins values, the source holds several entries; their conditions need not be identical. Equal values may be shown once. Read-outs that look alike come from different tables or passages of the source.

How the values were obtained:
human serum albumin [1] = target: T1, human serum albumin (Homo sapiens, UniProt P02768); experiment: HSA binding on Chiralpak HSA column; format: in vitro ADME; conditions: for Log K HSA: reference substances for calibration of the HSA-column; for HSA Binding: Chiralpak HSA column (50 × 3 mm, 5 μm)
T1 construct: purchased H13H-2433
T1 sequence (P02768 25-609): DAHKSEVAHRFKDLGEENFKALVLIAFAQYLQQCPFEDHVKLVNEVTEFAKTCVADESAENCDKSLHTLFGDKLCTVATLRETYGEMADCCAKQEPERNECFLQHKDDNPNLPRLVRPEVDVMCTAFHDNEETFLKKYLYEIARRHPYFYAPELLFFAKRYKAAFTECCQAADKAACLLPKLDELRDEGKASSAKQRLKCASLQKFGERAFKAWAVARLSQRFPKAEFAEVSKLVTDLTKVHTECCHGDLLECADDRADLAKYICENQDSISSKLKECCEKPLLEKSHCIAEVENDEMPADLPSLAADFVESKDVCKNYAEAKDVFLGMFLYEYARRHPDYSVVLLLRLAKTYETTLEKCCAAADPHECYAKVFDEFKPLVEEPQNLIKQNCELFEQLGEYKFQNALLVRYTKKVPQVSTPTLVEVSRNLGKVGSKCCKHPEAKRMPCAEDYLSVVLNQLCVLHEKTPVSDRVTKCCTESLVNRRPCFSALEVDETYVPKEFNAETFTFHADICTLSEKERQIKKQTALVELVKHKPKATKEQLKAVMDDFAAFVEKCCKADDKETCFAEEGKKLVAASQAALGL
Experimental: The mobile phase (A: NH4OAc, 50 mM in water, pH 7 and B: isopropanol) was freshly prepared for each experiment and only used for one day. The column was kept at room temperature and each run was stopped after detection of the signal to reduce the acquisition time. All substances were dissolved in a 0.5 mg/ml concentration in 50% 2-propanol and 50% 50 mM pH 6.9 ammonium acetate buffer. […] All nine reference substances were injected consecutively to establish a non-linear regression with Origin Pro 2016G.

human serum albumin [2] = target: T1, human serum albumin; conditions: reference substances for calibration of the HSA-column; cited from earlier work
PSMA = target: T2, PSMA (Homo sapiens, UniProt Q04609); experiment: Determination of IC50: PSMA affinity, competitive binding on LNCaP cells against ([125I]I-BA)KuE
T2 construct: endogenous in cells; host or cells: LNCaP cells
T2 sequence (Q04609 whole entry): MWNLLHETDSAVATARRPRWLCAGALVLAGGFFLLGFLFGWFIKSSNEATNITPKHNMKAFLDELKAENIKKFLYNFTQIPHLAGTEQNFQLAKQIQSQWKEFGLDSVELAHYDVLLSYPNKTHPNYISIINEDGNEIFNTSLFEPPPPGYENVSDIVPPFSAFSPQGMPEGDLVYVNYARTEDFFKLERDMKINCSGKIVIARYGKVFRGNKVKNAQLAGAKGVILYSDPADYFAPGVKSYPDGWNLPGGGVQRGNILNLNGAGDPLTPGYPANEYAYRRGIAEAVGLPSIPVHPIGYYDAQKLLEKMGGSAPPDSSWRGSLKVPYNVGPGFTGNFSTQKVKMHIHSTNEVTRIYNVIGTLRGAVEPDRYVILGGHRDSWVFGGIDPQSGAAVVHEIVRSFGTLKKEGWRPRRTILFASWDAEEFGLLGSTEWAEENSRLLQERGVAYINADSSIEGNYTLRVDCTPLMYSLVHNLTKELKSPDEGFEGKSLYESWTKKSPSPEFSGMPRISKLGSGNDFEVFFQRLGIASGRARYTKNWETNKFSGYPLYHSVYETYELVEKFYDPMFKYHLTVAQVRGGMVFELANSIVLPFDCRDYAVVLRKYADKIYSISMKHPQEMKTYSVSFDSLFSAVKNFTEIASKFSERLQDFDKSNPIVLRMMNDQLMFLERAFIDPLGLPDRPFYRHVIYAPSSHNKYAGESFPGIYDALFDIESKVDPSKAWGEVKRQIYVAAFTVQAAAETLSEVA
Experimental: Data are expressed as mean±SD (n=3, in 3 different experiments).
After removal of the culture medium, the cells were treated once with 500 μL of HBSS (Hank's balanced salt solution, Biochrom, Berlin, Germany, with addition of 1% bovine serum albumin (BSA)) and left 15 min on ice for equilibration in 200 μL HBSS (1% BSA). […] Quantification of bound and free radioligand was accomplished in a γ-counter.

[3] = tested on: LNCaP tumor-bearing SCID mice; experiment: Biodistribution at 1 h p.i.; format: in vivo; conditions: for Biodistribution tumor: LNCaP tumor
Experimental: FIG. 10: Biodistribution (in % ID/g) of ^18E-labeled rhPSMA tracers at 1 h p.i in LNCaP tumor-bearing SCID mice. Data are expressed as mean±SD (n=4 for rhPSMA7.1, n=5 for 7.2, n=4 for 7.3, n=5 for 7.4 and n=3 for 7-rac).

[4] = tested on: PSMA-positive LNCaP cells; experiment: Internalization in LNCaP cells, normalized to ([125I]I-BA)KuE; format: cell-based; conditions: for individual internalization rates / internalization rate Mean: LNCaP cells, 1 hour, 37° C.; for individual internalization rates: c=0.5 nM, single measurements
Experimental: Data is corrected for non-specific binding ([…]) and expressed as mean±SD (n=3).
Subsequent to the removal of the culture medium, the cells were washed once with 500 μL DMEM-F12 (5% BSA) and left to equilibrate for at least 15 min at 37° C. in 200 μL DMEM-F12 (5% BSA). Each well was treated with either 25 μL of either DMEM-F12 (5% BSA) or a 100 μM PMPA solution for blockade. Next, 25 μL of the ^68Ga/^18F-labeled PSMA inhibitor (5.0 nM) was added and the cells incubated at 37° C. for 60 min. The experiment was terminated by placing the 24-well plate on ice for 3 min and consecutive removal of the medium. Each well was rinsed with 250 μL HBSS and the fractions from these first two steps combined, representing the amount of free radioligand. Removal of surface bound activity was accomplished by incubation of the cells with 250 μL of ice-cold PMPA (10 μM in PBS) solution for 5 min and rinsed again with another 250 μL of ice-cold PBS. The internalized activity was determined by incubation of the cells in 250 μL 1 M NaOH and the combination with the fraction of a subsequent wash step with 250 μL 1.0 M NaOH. Each experiment (control and blockade) was performed in triplicate. Free, surface bound and internalized activity was quantified in a γ-counter. […] Data were corrected for non-specific internalization and normalized to the specific-internalization observed for the radioiodinated reference compound.

[5] = tested on: LNCaP tumor-bearing SCID mice; experiment: Biodistribution at 1 h p.i. with competition (co-injected PMPA); format: in vivo; conditions: co-injected with PMPA (8 mg/kg); for Biodistribution tumor: LNCaP tumor
Experimental: FIG. 11: Biodistribution [% ID/g] of ^18F-rhPSMAs co-injected with PMPA (8 mg/kg) at 1 h p.i in LNCaP tumor-bearing SCID mice. Data are expressed as mean±SD (n=3).

[6] = Wängler et al. 2010; cited from earlier work
[7] = Octanol-water partition coefficient (n-octanol/PBS pH 7.4); format: physicochemical; conditions: for log P: octanol/PBS7.4, (n = 6)
Experimental: Approximately 1 MBq of the labeled tracer was dissolved in 1 mL of a 1:1 mixture (by volumes) of phosphate buffered saline (PBS, pH 7.4) and n-octanol in an Eppendorf tube. After vigorous mixing of the suspension for 3 minutes at room temperature, the vial was centrifuged at 15000 g for 3 minutes (Biofuge 15, Heraus Sepatech, Osterode, Germany) and 100 μL aliquots of both layers were measured in a gamma counter. The experiment was repeated at least six times.
Determianation of the IogP values was carried out in phosphate buffered saline (PBS, pH 7.4) and n-octanol (=logPoct/PBS).

[8] = LNCaP cells, [125I]IB-KuE c=0.2 nM, 1 h, 4° C., HBSS+1% BSA, single measurements, read-out: individual IC50 measurements
[9] = LNCaP cells, [125I]IB-KuE c=0.2 nM, 1 h, 4° C., mean of individual measurements, read-out: IC50 Mean

In the case of `Nc1ccccc1` [Aniline], the “Log K HSA” value (human serum albumin [1]) is listed as −0.79 and the “Lit. HSA % (literature value of human serum albumin binding)” value (“Lit. HSA %” for short) (human serum albumin [2]) is listed as 14.06%.

In the case of `Oc1ccccc1` [Phenol], the “Log K HSA” value (human serum albumin [1]) is given as −0.59 and the “Lit. HSA %” value (human serum albumin [2]) is given as 20.69%.

For “[^19F][^natGa]L-Dap-S-DOTAGA-rhPSMA7 [rhPSMA7.4]”, the “HSA Binding” value (human serum albumin [1]) was 96.6%, the IC50 (PSMA; [8]) was 3.4 nM and 3.56 nM and 2.79 nM and 4.57 nM and 3.78 nM and the IC50 (PSMA; [9]) was 3.62 nM. The Biodistribution adrenals [3] was 3.57 ± 2.38 % ID/g, the Biodistribution blood [3] was 1.15 ± 0.30 % ID/g and the Biodistribution bone [3] was 0.62 ± 0.30 % ID/g. It also gave a Biodistribution heart [3] of 0.71 ± 0.26 % ID/g, a Biodistribution intestine [3] of 0.37 ± 0.09 % ID/g and a Biodistribution kidneys [3] of 153 ± 80.3 % ID/g. The Biodistribution liver [3] was 0.69 ± 0.20 % ID/g, the Biodistribution lung [3] was 1.59 ± 0.61 % ID/g and the Biodistribution muscle [3] was 0.31 ± 0.08 % ID/g. The Biodistribution pancreas [3] was 0.50 ± 0.30 % ID/g, the Biodistribution spleen [3] was 18.4 ± 9.77 % ID/g and the Biodistribution stomach [3] was 0.25 ± 0.06 % ID/g. The Biodistribution tumor [3] was 18.9 ± 3.27 % ID/g, the individual internalization rates [4] was 209.6 % of [^125I]IB-KuE and 202.6 % of [^125I]IB-KuE and 209.8 % of [^125I]IB-KuE and the “internalization rate Mean” value [4] was 207.33±4.06 % of [^125I]IB-KuE and 207.33 % of [^125I]IB-KuE. For the same compound, the Biodistribution adrenals [5] was 0.03 ± 0.04 % ID/g, the Biodistribution blood [5] was 0.82 ± 0.17 % ID/g and the Biodistribution bone [5] was 1.0 ± 0.8 % ID/g. The Biodistribution heart [5] was 0.37 ± 0.05 % ID/g, the Biodistribution intestine [5] was 0.36 ± 0.08 % ID/g and the Biodistribution kidneys [5] was 7.2 ± 2.4 % ID/g. It also gave a Biodistribution liver [5] of 0.48 ± 0.14 % ID/g, a Biodistribution lung [5] of 0.74 ± 0.14 % ID/g and a Biodistribution muscle [5] of 0.20 ± 0.05 % ID/g. It also gave a Biodistribution pancreas [5] of 0.18 ± 0.09 % ID/g, a Biodistribution spleen [5] of 0.28 ± 0.15 % ID/g and a Biodistribution stomach [5] of 0.20 ± 0.07 % ID/g. For the same compound, the Biodistribution tumor [5] was 0.99 ± 0.19 % ID/g.

For SIFA-Asn(AcNH-β-Glc)-Tyr^3-octreotate, the “log P(ow)” value [6] is given as 1.23.

For `COc1ccc(Cl)cc1C(=O)NCCc1ccc(S(=O)(=O)NC(=O)NC2CCCCC2)cc1` [Glibenclamide], the “Log K HSA” value (human serum albumin [1]) is given as 1.69 and the “Lit. HSA %” value (human serum albumin [2]) is given as 99.00%.

With `O=C(O)CC[C@H](NC(=O)N[C@@H](CCCCNC(=O)c1ccc(F)nc1)C(=O)O)C(=O)O` [DCFPyL, reference compound] the “HSA Binding” value (human serum albumin [1]) was 14.3% and the logP ([7]; pH 7.4) was -3.4.

With PSMA-1007 [reference compound] the “HSA Binding” value (human serum albumin [1]) was 97.8%, the IC50 (PSMA; identical binding assay, carried out in our lab (Robu et al. 2018), read-out: IC50 of other selected PSMA inhibitors) was 4.2 ± 0.5 nM and the “log P” value [7] was −1.6. For the same compound, the “internalization of other selected PSMA inhibitors” value ([4]; identical assay, carried out in our lab (Robu et al. 2018)) was 118 ± 4 % of [^125I]IB-KuE.

In the case of `CCCN(CCC)S(=O)(=O)c1ccc(C(=O)O)cc1` [Probenecid], the “Lit. HSA %” value (human serum albumin [2]) is given as 95.00%.

In the case of “SIFA-Asn(AcNH-β-Glc)-PEG-Tyr^3-octreotate”, the “log P(ow)” value [6] is listed as 0.96.

In the case of `O=C(O)c1ccccc1` [Benzoic Acid], the “Lit. HSA %” value (human serum albumin [2]) is given as 34.27%.

For `CC(C)(C)[Si](F)(c1ccc(C(=O)NC[C@H](NC(=O)CC[C@H](C(=O)O)N2CCN(CC(=O)[O-])CCN(CC(=O)[O-])CCN(CC(=O)[O-])CC2)C(=O)N[C@H](CCCCNC(=O)CCC(=O)NCCC[C@@H](NC(=O)CC[C@H](NC(=O)N[C@@H](CCC(=O)O)C(=O)O)C(=O)O)C(=O)O)C(=O)O)cc1)C(C)(C)C.[Ga+3]` [rhPSMA7.2, [^19F][^natGa]L-Dap-R-DOTAGA-rhPSMA7], the “HSA Binding” value (human serum albumin [1]) was 97.8%, the IC50 (PSMA; [8]) was 2.64 nM and 2.76 nM and 3.94 nM and 5.8 nM and 4.31 nM and 4.32 nM and 3.17 nM and 2.97 nM and 3.36 nM and the IC50 (PSMA; [9]) was 3.7 nM. For the same compound, the Biodistribution adrenals [3] was 1.3 ± 0.8 % ID/g, the Biodistribution blood [3] was 0.56 ± 0.20 % ID/g and the Biodistribution bone [3] was 0.31 ± 0.24 % ID/g. It also gave a Biodistribution heart [3] of 0.32 ± 0.13 % ID/g, a Biodistribution intestine [3] of 0.18 ± 0.07 % ID/g and a Biodistribution kidneys [3] of 87.6 ± 28.8 % ID/g. It also gave a Biodistribution liver [3] of 0.35 ± 0.08 % ID/g, a Biodistribution lung [3] of 0.89 ± 0.38 % ID/g and a Biodistribution muscle [3] of 0.13 ± 0.07 % ID/g. It also gave a Biodistribution pancreas [3] of 0.21 ± 0.08 % ID/g, a Biodistribution spleen [3] of 10.1 ± 6.3 % ID/g and a Biodistribution stomach [3] of 0.19 ± 0.08 % ID/g. The Biodistribution tumor [3] was 6.5 ± 2.3 % ID/g, the “log P” value [7] was −3.13 ± 0.22 and the “log P Mean” value ([7]; octanol/PBS7.4, mean of individual measurements) was −3.13. For the same compound, the “individual log P measurements” value ([7]; octanol/PBS7.4, single measurements) was −3.03 and −2.96 and −2.94 and −2.89 and −3.02 and −3.06 and −2.99 and −3.14 and −3.40 and −3.50 and −3.45 and −3.53 and −3.48 and −3.00 and −3.01, the individual internalization rates [4] was 192.3 % of [^125I]IB-KuE and 188.7 % of [^125I]IB-KuE and 182.7 % of [^125I]IB-KuE and 169.5 % of [^125I]IB-KuE and 205.3 % of [^125I]IB-KuE and 212.6 % of [^125I]IB-KuE and the “internalization rate Mean” value [4] was 191.83 % of [^125I]IB-KuE. It also gave a Biodistribution adrenals [5] of 0.07 ± 0.10 % ID/g, a Biodistribution blood [5] of 1.1 ± 0.31 % ID/g and a Biodistribution bone [5] of 0.57 ± 0.39 % ID/g. For the same compound, the Biodistribution heart [5] was 0.47 ± 0.09 % ID/g, the Biodistribution intestine [5] was 0.33 ± 0.10 % ID/g and the Biodistribution kidneys [5] was 10.9 ± 1.0 % ID/g. It also gave a Biodistribution liver [5] of 0.46 ± 0.07 % ID/g, a Biodistribution lung [5] of 1.1 ± 0.32 % ID/g and a Biodistribution muscle [5] of 0.09 ± 0.03 % ID/g. The Biodistribution pancreas [5] was 0.12 ± 0.05 % ID/g, the Biodistribution spleen [5] was 0.26 ± 0.07 % ID/g and the Biodistribution stomach [5] was 0.21 ± 0.06 % ID/g. It also gave a Biodistribution tumor [5] of 1.0 ± 0.13 % ID/g.
